Series [1] can be described thus: Oral bioavailability in human. Format: ADME, organism-based. Particulars: in vivo.
A short description of series [2]: Half life in human plasma. The class given is ADME, cell-free.
The nature of series [3]: Cmax in human plasma. The class given is ADME, cell-free.
Series [4] in a line: Oral bioavailability in human at 2 mg/kg. The class given is ADME, organism-based. Particulars: in vivo.
Series [5] in a line: Drug recovery in rat feces at 10 mg/kg, IG measured after 36 hrs. Format: ADME, organism-based. To be noted: faeces, po, read-out: Drug recovery.
Series [6] in a line: Drug recovery in rat urine at 10 mg/kg, IG measured after 36 hrs. Format: ADME, organism-based. Particulars: po, read-out: Drug recovery.

Usually bioavailability stands for the share of a dose that reaches the circulation, judged against a reference dose that is usually intravenous. The term half-life denotes how long it takes for the measured level to halve. Higher therefore signals slow loss. For `CC(=O)Nc1ccc(O)cc1` [ACETAMINOPHEN], the bioavailability in series [1] is 86%. In addition, the half-life in series [2] was determined as 12 min.

As a reminder, the Cmax is the maximum level reached in the sampled fluid or tissue. Turning to `O=c1c(-c2ccc(O)cc2)coc2c([C@@H]3O[C@H](CO)[C@@H](O)[C@H](O)[C@H]3O)c(O)ccc12` [PUERARIN], the Cmax in series [3] came to 140 ng/mL. The molecule further registered a bioavailability in series [4] of 7%.

For `Oc1ccc(/C=C/c2cc(O)cc(O)c2)cc1` [RESVERATROL], the dose excreted at 36 h in series [5] came to 0.07%; in series [6], 0.15%.
